One test addresses T1, HDAC6F H611A mutant (Homo sapiens, UniProt Q9UBN7, H611A).
T1 construct: made in house; host or cells: TAg Jurkat cells, transient transfection, anti-FLAG M2 immunoprecipitation
Briefly: in vitro deacetylase assay with [3H]-histones, HDAC6F H611A mutant. It is filed as biochemical. The conditions noted are these: [3H]-labeled histones, n=3. How it is done: (§1) FLAG-tagged HDAC pBJ5 constructs were transiently transfected by electroporation with 5 μg DNA for expression of recombinant proteins (C. M. Grozinger, C. A. Hassig and S. L. Schreiber, Proc. Natl. Acad. Sci. USA, 27, 4868 (1999); and C. A. Hassig et al., Proc. Natl. Acad. Sci. USA 95, 3519 (1998)]. Cells were mock transfected without DNA or with a non-FLAG-tagged pCMV-LacZ construct as a negative control. Forty-eight hours after transfection recombinant proteins were immunoprecipitated using anti-FLAG M2 agarose affinity gel beads as described [C. A. Hassig et al., Proc. Natl. Acad. Sci. USA 95, 3519 (1998)]. Western blotting using anti-acetylated α-tubulin (1:1000) anti-tubulin (1:1000), and anti-acetylated (K9, K14) histone H3 (1:1000) antibodies was performed using standard methods (K. M. Koeller et al., Chemistry & Biology, 10 (5) (2003) pp. 397-410). […]
(§2) [^3H]Acetate-incorporated histones were isolated from butyrate-treated HeLa cells as described [J. Taunton, C. […] Immunoprecipitates were incubated with acetylated histones and HDAC activity determined by scintillation counting as described [J. Taunton, C. […] After centrifugation, the supernatant (diluted to 0.4 μg tubulin) and α-FLAG M2 agarose affinity gel beads were analyzed by western blotting with an anti-FLAG M2 antibody (1:1750) to ensure equal protein levels.

For test [1], the system named is mouse embryonic stem cells. Briefly: genome-wide transcriptional profiling (U74Av2 chip). It is filed as cell-based. The note with it: TSA 300 nM, tubacin 2 μM. How it is done:
Gene expression analysis of tubacin, TSA, and DMSO-treated mouse embryonic stem cells were performed according to the Affymetrix protocol using an U74Av2 chip as described in full (K. M. Koeller et al., Chemistry & Biology, 10 (5) (2003) pp. 397-410). Present calls were determined by accompanying software and data analysis, including array normalization and clustering, performed using dChip software [C. Li and W. H. Wong, Genome Biol. 2, 32 (2001); and E. E. Schadt, C. Li, B. Ellis and W. H. Wong, J. Cell Biochem. Suppl. 37, 120 (2001)].

A further test has as its target T2, HDAC6F H216A mutant (Homo sapiens, UniProt Q9UBN7, H216A).
T2 construct: made in house; host or cells: TAg Jurkat cells, transient transfection, anti-FLAG M2 immunoprecipitation
T2 sequence (Q9UBN7 1-1215 H216A): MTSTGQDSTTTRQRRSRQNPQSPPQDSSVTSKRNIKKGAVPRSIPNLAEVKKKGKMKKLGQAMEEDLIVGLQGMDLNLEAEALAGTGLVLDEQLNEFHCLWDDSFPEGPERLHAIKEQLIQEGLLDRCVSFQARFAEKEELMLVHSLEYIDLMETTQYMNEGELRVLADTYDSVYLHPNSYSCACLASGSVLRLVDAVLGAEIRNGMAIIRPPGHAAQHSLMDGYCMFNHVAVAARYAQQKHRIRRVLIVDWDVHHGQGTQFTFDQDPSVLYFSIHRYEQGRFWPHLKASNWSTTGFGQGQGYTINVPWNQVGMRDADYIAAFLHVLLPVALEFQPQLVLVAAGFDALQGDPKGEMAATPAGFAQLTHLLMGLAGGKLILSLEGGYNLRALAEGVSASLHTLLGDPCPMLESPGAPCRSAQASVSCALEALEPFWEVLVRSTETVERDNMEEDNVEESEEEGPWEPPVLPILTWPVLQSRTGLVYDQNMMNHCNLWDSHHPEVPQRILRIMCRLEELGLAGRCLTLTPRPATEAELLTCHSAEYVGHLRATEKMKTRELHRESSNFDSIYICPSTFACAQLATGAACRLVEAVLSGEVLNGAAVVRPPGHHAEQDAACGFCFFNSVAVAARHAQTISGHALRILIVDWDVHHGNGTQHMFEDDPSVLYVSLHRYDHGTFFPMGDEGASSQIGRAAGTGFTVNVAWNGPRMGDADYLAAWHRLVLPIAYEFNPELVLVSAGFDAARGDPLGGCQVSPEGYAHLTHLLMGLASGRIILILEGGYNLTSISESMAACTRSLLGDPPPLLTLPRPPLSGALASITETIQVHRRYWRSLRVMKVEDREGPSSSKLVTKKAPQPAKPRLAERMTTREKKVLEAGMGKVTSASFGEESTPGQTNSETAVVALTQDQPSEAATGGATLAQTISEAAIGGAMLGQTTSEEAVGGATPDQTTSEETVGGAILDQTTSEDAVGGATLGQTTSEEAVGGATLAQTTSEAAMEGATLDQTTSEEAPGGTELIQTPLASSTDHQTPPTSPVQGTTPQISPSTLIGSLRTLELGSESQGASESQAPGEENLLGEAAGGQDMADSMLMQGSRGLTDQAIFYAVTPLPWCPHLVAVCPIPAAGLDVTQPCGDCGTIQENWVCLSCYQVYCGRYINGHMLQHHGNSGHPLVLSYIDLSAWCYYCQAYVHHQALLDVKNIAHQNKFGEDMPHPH
Briefly: in vitro tubulin deacetylase (TDAC) assay, HDAC6F H216A mutant. It is filed as biochemical. The note with it: acetylated tubulin as substrate. As for the experimental part:
as §1, §2

SMILES strings stand for the structures.

T1 sequence (Q9UBN7 whole entry H611A): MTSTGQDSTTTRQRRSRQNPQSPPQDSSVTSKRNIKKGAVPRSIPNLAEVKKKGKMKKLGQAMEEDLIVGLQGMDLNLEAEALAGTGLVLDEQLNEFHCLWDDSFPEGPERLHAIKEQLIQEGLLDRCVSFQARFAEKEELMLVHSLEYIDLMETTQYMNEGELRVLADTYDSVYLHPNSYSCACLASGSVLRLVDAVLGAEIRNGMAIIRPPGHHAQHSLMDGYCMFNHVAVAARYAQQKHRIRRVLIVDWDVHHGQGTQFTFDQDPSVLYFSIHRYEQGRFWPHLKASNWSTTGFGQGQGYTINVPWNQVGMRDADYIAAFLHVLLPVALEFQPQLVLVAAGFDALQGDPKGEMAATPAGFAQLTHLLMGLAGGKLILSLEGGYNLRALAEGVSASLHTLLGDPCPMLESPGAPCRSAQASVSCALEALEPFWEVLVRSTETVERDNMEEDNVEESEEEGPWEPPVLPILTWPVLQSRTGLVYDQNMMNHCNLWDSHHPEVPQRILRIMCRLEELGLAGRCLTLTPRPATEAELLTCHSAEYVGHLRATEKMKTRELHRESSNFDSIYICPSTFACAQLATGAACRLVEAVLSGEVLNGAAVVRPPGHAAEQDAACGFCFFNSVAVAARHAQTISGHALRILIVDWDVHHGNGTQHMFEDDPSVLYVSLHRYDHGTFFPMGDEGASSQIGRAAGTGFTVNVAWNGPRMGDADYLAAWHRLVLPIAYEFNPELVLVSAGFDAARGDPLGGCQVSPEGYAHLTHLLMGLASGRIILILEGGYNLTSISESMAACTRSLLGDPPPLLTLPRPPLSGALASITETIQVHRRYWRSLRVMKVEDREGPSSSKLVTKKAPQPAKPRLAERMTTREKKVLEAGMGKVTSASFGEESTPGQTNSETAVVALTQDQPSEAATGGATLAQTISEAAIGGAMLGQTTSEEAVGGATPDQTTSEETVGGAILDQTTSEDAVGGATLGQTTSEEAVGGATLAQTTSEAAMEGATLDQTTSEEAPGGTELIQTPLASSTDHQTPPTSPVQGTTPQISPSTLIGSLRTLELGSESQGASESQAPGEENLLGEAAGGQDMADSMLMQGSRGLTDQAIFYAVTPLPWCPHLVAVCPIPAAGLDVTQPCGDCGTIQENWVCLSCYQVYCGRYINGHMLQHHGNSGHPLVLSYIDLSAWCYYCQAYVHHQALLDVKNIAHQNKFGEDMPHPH

Consider `CC(/C=C/C(=O)NO)=C\[C@@H](C)C(=O)c1ccc(N(C)C)cc1` [TSA, trichostatin A, reference compound], for which the “inhibition of HDAC activity of HDAC6F H611A mutant” value at HDAC6F H611A mutant is reported as “not inhibited by either TSA or tubacin”. Moreover, the “number of genes with altered expression above a 1.3-fold threshold” value in test [1] amounted to 232 genes. Besides, the “inhibition of TDAC activity of HDAC6F H216A mutant” value against HDAC6F H216A mutant was “exhibited TDAC activity that was inhibited by tubacin and TSA”.
In the case of `O=C(CCCCCCC(=O)Nc1ccc([C@@H]2OC(c3ccc(CO)cc3)C[C@H](CSc3nc(-c4ccccc4)c(-c4ccccc4)o3)O2)cc1)NO` (stereo partly drawn) [tubacin], the “inhibition of HDAC activity of HDAC6F H611A mutant” value at HDAC6F H611A mutant was “not inhibited by either TSA or tubacin”. The “number of genes with altered expression above a 1.3-fold threshold” value in test [1] is recorded as “no genes showed a significant alteration in expression”. Besides, the “inhibition of TDAC activity of HDAC6F H216A mutant” value against HDAC6F H216A mutant is “exhibited TDAC activity that was inhibited by tubacin and TSA”.

Source of the values: US8178579B2, “Dioxanes and uses thereof” (President and Fellows of Harvard College, priority 2001, dated 2012).
